Values after ≈ are worked out from the molar mass of the structure shown. Like-named read-outs stand apart in the source and are kept apart here. Blank lines part the entries; values can stand above or below the molecule they belong to.
Assays:
[1] = cited from earlier work
S. pyrogenes = assay: Minimum inhibitory concentration, broth microdilution (NCCLS M7-A); assay type: cell-based; conditions: read-out: Minimum Inhibitory Concentration
Experimental: (§1) The minimum inhibitory concentration of the drugs against the bacterial strains S. pyrogenes, E. faecalis, S. aureus, E. coli and P. aeruginosa were determined.

P. aeruginosa = assay: as above; assay type: cell-based; conditions: Pseudomonas aeruginosa, read-out: Minimum Inhibitory Concentration
Experimental: as §1

E. faecalis = assay: as above; assay type: cell-based; conditions: Enterococcus faecalis, read-out: Minimum Inhibitory Concentration
Experimental: as §1

S. aureus = assay: as above; assay type: cell-based; conditions: Staphylococcus aureus, inoculum 5×10^5 CFU/ml
Experimental: (§2) As described above, glycinyl-ciprofloxacin was prepared as set forth in Example 2A-2B and tested for antimicrobial activity in vitro, as described in Example 2C. The minimum inhibitory concentration of the drugs against the bacterial strains S. pyrogenes, E. faecalis, S. aureus, E. coli and P. aeruginosa were determined.
(§3) Minimum inhibitory concentrations were determined by a broth microdilution technique following the National Committee for Clinical Laboratory Standards guidelines (NCCLS document M7-A, National Committee for Laboratory Standards, Villanova, Pa., 1994 Approved Standard for "Methods for dilution antimicrobial susceptibility tests for bacteria that grow aerobically") with a starting inoculum of 5×10^5 CFU/ml.

[2] = Remote drug loading into PEG-coated liposomes; assay type: physicochemical; conditions: for % Drug Loading / Drug Conc. at Lipid Conc. of 36 mg/ml / Internal Liposome Drug Conc.: Drug:Lipid Ratio (mg/ml/mM) 2.5:50 (lysine-cipro), 5:50 (glycine-cipro)
Experimental: The chloroform was removed using a flash evaporator under reduced pressure until dryness. To the thin lipid film on the surface of the flask was added 15 ml of a solution of 250 mM ammonium sulfate, pH 5.5 and the lipids were dispersed in the solution by vigorous shaking for approximately 30 minutes at 60° C. The multilamellar vesicles obtained were extruded 6 times through a 0.4 μm pore-size Nucleopore polycarbonate filter, 6 times through a 0.1 μm polycarbonate filter and 3 times through a 0.05 μm polycarbonate filter using a stainless steel extrusion cell under a pressure of 200-400 psig. The extrusion process was carried out at 60° C. […] The liposomes were then dialyzed overnight against 4 liters 10% sucrose to remove external ammonium sulfate at 4° C.
The mixtures were incubated at 60° C. for 30 minutes. After incubation, the mixtures were immediately cooled in an ice bath. Aliquot samples were taken and the percent of drug loading was determined by using a Sephadex G-50 column (1.0×19 cm).

[3] = tested on: S. pyrogenes, E. faecalis, S. aureus, E. coli and P. aeruginosa; assay: Antimicrobial activity of conjugate versus ciprofloxacin (MIC, summary in words); assay type: cell-based; conditions: compared with ciprofloxacin, MICs of Table 1
Experimental: as §1

E. coli = assay: Minimum inhibitory concentration, broth microdilution (NCCLS M7-A); assay type: cell-based; conditions: Escherichia coli, inoculum 5×10^5 CFU/ml
Experimental: as §2, §3

[4] = amino acid used to modify ciprofloxacin
[5] = amino group (NH3) of amino acid, Lehninger

Molecule: ε-aminocapric acid
pKa [1, 4]: 10.5

Molecule: O=C(O)c1cn(C2CC2)c2cc(N3CCNCC3)c(F)cc2c1=O [ciprofloxacin, 1-cyclopropyl-6-fluoro-1,4-dihydro-4-oxo-7-(1-piperazinyl)-3-quinoline carboxylic acid]
MIC (S. pyrogenes): < 0.5 µg/mL
MIC (P. aeruginosa): < 0.5 µg/mL
MIC (E. faecalis): 1 µg/mL (≈ 3.02 µM)
MIC (S. aureus): 1 µg/mL (≈ 3.02 µM)
percent of drug loading ([2]; lipid/drug ratio 2): 49%
percent of drug loading ([2]; lipid/drug ratio 4): 75%
percent of drug loading ([2]; lipid/drug ratio 8): 90%
ciprofloxacin loading ([2]; lipid/drug ratio 8, as stated in leakage test): 75%
percent of drug loading ([2]; lipid/drug ratio 16): 91%

Molecule: α-aminocapric acid
pKa [1, 4]: 9.6

Molecule: C[C@H](N)C(=O)O [alanine]
pKa [1, 5]: 9.7

Molecule: NCCCC[C@H](N)C(=O)O [lysine]
pKa [1, 5]: 8.95

% Drug Loading [2]: 73%
Drug Conc. at Lipid Conc. of 36 mg/ml [2]: 1.825
Internal Liposome Drug Conc. [2]: 13.1 mg/mL
Molecule: NCCCC[C@H](N)C(=O)N1CCN(c2cc3c(cc2F)c(=O)c(C(=O)O)cn3C2CC2)CC1 [lysinyl-ciprofloxacin]

Molecule: NCC(=O)O [glycine]
pKa [1, 5]: 9.6

Molecule: NCC(=O)N1CCN(c2cc3c(cc2F)c(=O)c(C(=O)O)cn3C2CC2)CC1 [glycinyl-ciprofloxacin]
MIC (S. pyrogenes; S. pyrogenes, inoculum 5×10^5 CFU/ml): 4 µg/mL (≈ 10.3 µM)
MIC (P. aeruginosa; P. aeruginosa, inoculum 5×10^5 CFU/ml): > 512 µg/mL
MIC (E. faecalis; E. faecalis, inoculum 5×10^5 CFU/ml): 32 µg/mL (≈ 82.4 µM)
potency relative to ciprofloxacin [3]: some loss of potency
MIC (S. aureus): 32 µg/mL (≈ 82.4 µM)
MIC (E. coli): 8 µg/mL (≈ 20.6 µM)
% Drug Loading [2]: 75%
Drug Conc. at Lipid Conc. of 36 mg/ml [2]: 5
Internal Liposome Drug Conc. [2]: 37.5 mg/mL

Molecule: N=C(N)NCCC[C@H](N)C(=O)O [arginine]
pKa [1, 5]: 9.04
